Publication PMC11374673, “Discovery of isoquinoline sulfonamides as allosteric gyrase inhibitors with activity against fluoroquinolone-resistant bacteria” (Nature Chemistry, 2024)
≈ marks a conversion by molar mass, not a printed value. Read-outs that look alike come from different tables or passages of the source.

Legend:
[1] = test system: E. coli W3110; experiment: MIC by broth microdilution; type: cell-based, Escherichia coli
Description: (§1) MIC was determined by broth microdilution. Single-colony cultures were grown to exponential phase (OD600 of 0.5) aerobically at 37 °C. In case of strains from the Keio collection, 50 µg ml^−1 kanamycin was supplemented to the media to ascertain a homogeneous population. The bacterial suspensions were diluted 100-fold in CAMHB and 50 µl was added to a twofold serial dilution series of test compounds (50 µl per well) in polypropylene 96-well microtitre plates to reach a volume of 100 µl. The plates were sealed with breathable membranes and incubated overnight at 37 °C with constant shaking (600 r.p.m.).

[2] = test system: K. pneumoniae ATCC 29665; experiment: MIC by broth microdilution; type: cell-based, Klebsiella pneumoniae; conditions: read-out: MIC K. pneumoniae ATCC 29665
Description: as §1

[3] = test system: E. coli BW25113; experiment: Bacterial cytological profiling (BCP); type: cell-based, Escherichia coli; conditions: BCP
Description: Overnight E. coli BW25113 cultures were diluted 1:100 in fresh LB medium in a 100 ml Erlenmeyer flask and incubated at 120 r.p.m. and 37 °C. When OD600 >0.2, the cultures were diluted to OD600 of 0.1 in fresh LB medium with a final volume of 200 µl in a 2 ml Eppendorf tube. The appropriate antibiotic or control treatment was applied and the samples were incubated at 200 r.p.m. and 30 °C for 2 h. Subsequently, 4,6-diamidino-2-phenylindole (DAPI) (2 µg ml^−1), FM4-64 (2 µg ml^−1) and SYTOX Green (0.5 µM) were added to reach the desired concentration and the samples were incubated a further 10 min. The samples were then centrifuged at 3,300g for 50 s and the pellets resuspended in half the original volume. From this suspension, 5 µl was spotted onto a 2.0% agarose pad for microscopy.
Microscopy was performed on a Zeiss Axio Observer Z1/7 inverted microscope.
For the qualitative assessment of the bacterial morphology, the acquired images were first pre-processed in ImageJ (v1.53m)[47]. Thereafter the brightness and contrast were adjusted to allow the clearest visual inspection of the particular phenotype. For the quantitative BCP, DIC images were first pre-processed and then a random forest classifier was trained with Illastik (v1.3.3)[48] to generate a segmented image. These binary masks were then combined together with the original DIC image and processed with the ImageJ plugin MicrobeJ (v 5.13l)[49]. MicrobeJ generated cell outlines and performed measurements on cell shape accordingly. The recorded cell outlines produced by MicrobeJ were exported and used as a guide to characterize the DNA shape within each bacterium using a custom-made ImageJ macro (Appendix II). DAPI and SYTOX Green intensity were measured on raw images in a similar manner. Then, by hand, polygons were drawn that excluded bacteria to determine background intensity. After background correction the intensity was standardized to the DMSO control within the same biological replicate. For PCA, the BCP assay was executed for three independently biological replicates. During each experiment, images were acquired until 24 or more bacteria in total had been observed. Following feature extraction for each replicate, principal component analysis was performed using GraphPad Prism (v9.0.0) using multiple variable analysis with standardized data. Principal components (PCs) were selected based on the per cent of total explained variance (minimum 80%).

[4] = Escherichia coli, W3110, WT, broth microdilution, read-out: MIC E. coli W3110
[5] = Klebsiella pneumoniae, ATCC29665, broth microdilution
[6] = WT, broth microdilution, read-out: MIC E. coli W3110
[7] = Escherichia coli, W3110, follow-up of the 12 library hits, read-out: MIC E. coli

Q: For O=S(=O)(NCCNCc1ccc(-c2ccccc2Cl)cc1)c1cccc2cnccc12 [Compound 70], which MIC [1, 4] is on record?
A: Its MIC is 25 µM (≈ 11.3 µg/mL).

Q: And the MIC [2, 5]?
A: The MIC was 50 µM (≈ 22.6 µg/mL).

Q: Which MIC [1, 4] does the source give for Cc1ccccc1-c1ccc(CNCCNS(=O)(=O)c2cccc3cnccc23)cc1 [Compound 71] here?
A: Its MIC is 12.5 µM (≈ 5.39 µg/mL).

Q: And the MIC [2, 5]?
A: Its MIC is 50 µM (≈ 21.6 µg/mL).

Q: N#Cc1ccccc1-c1ccc(CNCCNS(=O)(=O)c2cccc3cnccc23)cc1 [Compound 72] was tested. Which MIC [1, 4] did it give?
A: Its MIC is 25 µM (≈ 11.1 µg/mL).

Q: And the MIC [2, 5]?
A: The MIC was 50 µM (≈ 22.1 µg/mL).

Q: With COc1ccccc1-c1ccc(CNCCNS(=O)(=O)c2cccc3cnccc23)cc1 [Compound 73] as the compound, how does the MIC [1, 4] read?
A: The MIC was 25 µM (≈ 11.2 µg/mL).

Q: What about the MIC [2, 5] of the same compound?
A: The MIC was 50 µM (≈ 22.4 µg/mL).

Q: Which MIC [1, 4] does the source give for O=S(=O)(NCCNCc1ccc(-c2ccc(Cl)c(Cl)c2)cc1)c1cccc2cnccc12 [Compound 74] here?
A: The MIC was 25 µM (≈ 12.2 µg/mL).

Q: And the MIC [2, 5]?
A: Its MIC is > 50 µM.

Q: And the MIC ([2]; broth microdilution)?
A: The MIC was >50 µM.

Q: What does the source list for O=S(=O)(NCCNCc1ccc(-c2cc(Cl)cc(Cl)c2)cc1)c1cccc2cnccc12 [Compound 75]?
A: MIC [1, 4]: > 50 µM; MIC [1, 6]: >50 µM; MIC [2, 5]: > 50 µM; MIC ([2]; broth microdilution): >50 µM

Q: Which results are given for O=S(=O)(NCCNCc1ccc(-c2ccc3ccccc3c2)cc1)c1cccc2cnccc12 [Compound 76]?
A: MIC [1, 4]: > 50 µM; MIC [1, 6]: >50 µM; MIC [2, 5]: > 50 µM; MIC ([2]; broth microdilution): >50 µM

Q: What does the source list for O=S(=O)(NCCNCc1ccc(-c2ccc3c(c2)OCO3)cc1)c1cccc2cnccc12 [Compound 77]?
A: MIC [1, 4]: > 50 µM; MIC [1, 6]: >50 µM; MIC [2, 5]: > 50 µM; MIC ([2]; broth microdilution): >50 µM

Q: Which MIC [1, 4] does the source give for O=S(=O)(NCCNCc1ccc(-c2ccc3c(c2)OCCO3)cc1)c1cccc2cnccc12 [Compound 78] here?
A: The MIC was > 50 µM.

Q: What about the MIC [1, 6] of the same compound?
A: The MIC was >50 µM.

Q: And the MIC [2, 5]?
A: The MIC was > 50 µM.

Q: What about the MIC ([2]; broth microdilution) of the same compound?
A: The MIC was >50 µM.

Q: How did the MIC [1, 7] turn out when O=S(=O)(NCCNC/C=C/c1ccccc1-c1ccc2c(c1)OCO2)c1cccc2cnccc12 [Compound 97i] was run?
A: The MIC was > 50 µM.

Q: How did the MIC [1, 7] turn out when Cc1ccc(S(=O)(=O)N[C@@H]2C(=O)c3cc(C)ccc3O[C@H]2C)cc1 [IMI1517570] was run?
A: Its MIC is 25 µM (≈ 8.64 µg/mL).

Q: Which MIC ([1]; Escherichia coli, W3110, read-out: MIC E. coli) does the source give for CN(C)CCCN1c2ccccc2Sc2ccc(Cl)cc21 [MB053] here?
A: The MIC was > 50 µM.

Q: CO[C@H]1/C=C/O[C@@]2(C)Oc3c(C)c(O)c4c(O)c(c(/C=N/N5CCN(C)CC5)c(O)c4c3C2=O)NC(=O)/C(C)=C\C=C\[C@H](C)[C@H](O)[C@@H](C)[C@@H](O)[C@@H](C)[C@H](OC(C)=O)[C@@H]1C [RIF, rifampicin, reference compound] was tested. Which DAPI circularity [3] did it give?
A: Its DAPI circularity is 0.637 ± 0.019.

Q: And the DAPI nucleoid area [3]?
A: Its DAPI nucleoid area is 4.992 ± 0.606.

Q: What about the DAPI nucleoids [3] of the same compound?
A: The DAPI nucleoids was 1.120 ± 0.069.

Q: What about the DAPI perimeter [3] of the same compound?
A: The DAPI perimeter was 9.927 ± 0.636.

Q: And the DAPI roundness [3]?
A: The DAPI roundness was 0.408 ± 0.029.

Q: And the DAPI solidity [3]?
A: Its DAPI solidity is 0.918 ± 0.003.

Q: And the DAPI total area [3]?
A: Its DAPI total area is 5.402 ± 0.548.

Q: And the DIC area [3]?
A: Its DIC area is 5.883 ± 0.716.

Q: What about the DIC circularity [3] of the same compound?
A: Its DIC circularity is 0.642 ± 0.053.

Q: And the DIC curvature [3]?
A: The DIC curvature was 0.092 ± 0.018.

Q: What about the DIC feret [3] of the same compound?
A: Its DIC feret is 4.608 ± 0.076.

Q: And the DIC length [3]?
A: The DIC length was 4.635 ± 0.073.

Q: And the DIC roundness [3]?
A: The DIC roundness was 0.370 ± 0.047.

Q: And the DIC sinuosity [3]?
A: Its DIC sinuosity is 1.017 ± 0.003.

Q: What about the DIC solidity [3] of the same compound?
A: Its DIC solidity is 0.956 ± 0.014.

Q: And the DIC width [3]?
A: Its DIC width is 1.327 ± 0.161.

Q: And the Decondensation [3]?
A: Its Decondensation is 0.922 ± 0.075.

Q: What about the DIC angularity ([3]; 2 h, AMP 12.5, RIF 12.5, TET 6.25, CIP 0.0625, LEI-801 6.25, LEI-800 6.25 µM, average ± SD of 3 replicates) of the same compound?
A: Its DIC angularity is 0.101 ± 0.016.

Q: And the DAPI intensity ([3]; standardized to DMSO control)?
A: The DAPI intensity was 0.704 ± 0.260.

Q: What about the “SYTOX Green intensity” value ([3]; standardized to DMSO control) of the same compound?
A: The value was 2.120 ± 0.434.

Q: Which MIC [1, 7] does the source give for O=S(=O)(NCCNCCCc1ccc(-c2cccnc2)cc1)c1cccc2cnccc12 [SG145] here?
A: Its MIC is > 50 µM.

Q: For O=S(=O)(NCCNC/C=C/c1ccc(-c2cccnc2)cc1)c1ccc2[nH]ncc2c1 [SG170], which MIC [1, 7] is on record?
A: Its MIC is > 50 µM.

Q: O=S(=O)(NCCNC/C=C/c1ccc(-c2cccnc2)cc1)c1ccc2cn[nH]c2c1 [SG171] was tested. Which MIC [1, 7] did it give?
A: The MIC was > 50 µM.

Q: Which MIC [1, 7] does the source give for O=S(=O)(NCCNC/C=C/c1ccc(-c2cccnc2)cc1)c1cccc2[nH]ncc12 [SG176] here?
A: The MIC was > 50 µM.

Q: How did the MIC [1, 7] turn out when Nc1cc2c(S(=O)(=O)NCCNC/C=C/c3ccc(-c4cccnc4)cc3)cccc2cn1 [SG181] was run?
A: Its MIC is > 50 µM.
